Laboratory results from patent US20160278348A1, “METHOD FOR CONTROLLING WATER MOLDS IN AQUACULTURE WATER” (SUKEGAWA CHEMICALS CO., LTD., priority 2014, published 2016).

How the values were obtained:
[1] = tested on: water molds (genus Saprolegnia); experiment: Experiment 2: water mold culture on hempseed cotyledons, sensitized time 60 min; assay type: cell-based
[2] = tested on: water molds (genus Saprolegnia); experiment: Experiment 1: water mold culture on hempseed cotyledons, sensitized time 30 min; assay type: cell-based; conditions: 100 ppm; sensitized 30 min
Method: Based on “Testing Methods for City Water (2001 edition) by Japan Water Works Association, VIII Microbial Tests, 4.4.2.2 Water Mold Culture Method”, one hempseed cotyledon with water molds and 300 mL of sterilized tap water were placed in a sterilized 500-mL conical flask, and then 5 sterilized hempseed cotyledons were placed in the conical flask and cultured at ordinary temperature. The water molds (genus Saprolegnia) were collected from a hatchery in a fish farm for salmons and trout. […] The water in fee conical flask was diluted with sterilized tap water to prepare a zoospore suspension containing 10 to 12 zoospores of the water molds per 100 μL. It is to be noted that the tap water used was city water (pH 6.0) in Kobe.
The zoospore suspension was added to a sterilized tube (5 mL capacity) containing 3 hempseed cotyledons and stirred, and was then allowed to stand at room temperature for 3 days. After 3 days, 900 μL of a chemical solution was added to the sterilized tube, and the resulting mixture was stirred and then allowed to stand for 30 minutes for sensitization. […]
Based on the results of the observation, the minimum killing concentration of an active ingredient contained in the chemical solution was determined. […]

Row | Compound | minimum killing concentration ([1]; sensitized time 60 minutes, as chlorine dioxide) [ppm] | Haze [2] | Zoospores [2] | Haze ([1]; 100 ppm, sensitized 60 min) | Zoospores ([1]; 100 ppm, sensitized 60 min) | Haze ([1]; 1200 ppm, sensitized 60 min)
1 | sodium chlorite | 2.5 | – | – | – | – | –
2 | O=[N+]([O-])C(Br)(CO)CO [bronopol] | – | no effect | effective | no effect | effective | could not be prevented
